Measurements from publication PMC12400753 (Respiratory Research, 2025).
Where two headings read alike, the source gives them in different places.

Experiments:
LPAR1 = target: T1, LPAR1 (Mus musculus, UniProt P61793); assay: In vivo lung receptor occupancy with [3H]-PIPE-497; conditions: for EC50: read-out: lung receptor occupancy EC50 (plasma concentration)
T1 construct: from tissue; host or cells: lung of female C57BL6/N mice, dosed in vivo
Description: [^3H]-PIPE-497 was diluted to 9.8 µCi/mL in saline and administered via IV injection to the lateral tail vein at a dose volume of 5 mL/kg. Five minutes following radioligand administration, mice were euthanized by decapitation, trunk blood collected into K3EDTA tubes and stored on wet ice, each lung rapidly dissected, weighed and placed into a 5 mL polypropylene tube. Tissues were diluted with a 10x volume of ice-cold binding buffer (50 mM HEPES, 100 mM NaCl2, 2 mM EDTA). Lungs were then homogenized (25,000 rpm, 7 s). 300 µL of homogenate was filtered over Whatman GF/B filters (GE Life Sciences, Marlborough, MA) which had been pre-wetted with 0.5% polyethyleneimine prior to loading onto the Hoefer vacuum manifold. Filters were washed once by applying 3 mL ice-cold wash buffer (50 mM Tris, 154 mM NaCl, 0.05% Tween 20) to the manifold for a total of 2 washes. […] Washed filters were removed from the manifold and air dried. Following completion of filtration of all samples, uncapped scintillation vials were placed into an oven (~ 40–50 °C) for ~ 30 min to ensure complete drying. Five (5) mL Ultima Gold F scintillation fluid was added to each tube. Tubes were capped, gently agitated, and dark equilibrated for 30 min then read on a Beckman LS6500 liquid scintillation counter for tritium disntegrations per minute measurements. After all samples were collected, dissected, and filtered, the previously collected blood in K3EDTA tubes was centrifuged (1450 x g, 10 min, 4 °C) to separate plasma.

[1] = tested on: LPA-induced mast cell histamine release; assay: In vivo LPA-induced histamine release; set-up: species or system mouse
Description: Female CD-1 mice (Envigo) were allowed to acclimate for ~ 1 week. Animals were subject to a 12 h light – 12 h dark cycle. Mice were multi-housed in Innorack IVC mouse racks (Innovive, San Diego, CA) with access to water and standard rodent chow ad libitum. […] Three hours or 24 h after a single dose or after the last of 4 repeated administrations, 150 µL FAF-PBS/BSA (Control) or LPA (300 µg in 150 µL) was administered IV via the lateral tail vein and mice were immediately placed into an isoflurane chamber. Two minutes later, mice were euthanized by decapitation and trunk blood collected into K3EDTA tubes and stored on wet ice until processing to plasma (1450 x g, 10 min, 4 °C). Plasma was aliquoted into two 96-well polypropylene plates and transferred to −80 °C for storage until analysis for histamine by EIA.

[2] = tested on: primary human alveolar macrophages; assay: LPS-induced IL-1β release; assay type: cell-based
Description: Human macrophages were cultured in Human Alveolar Macrophage Media per manufacturer’s instructions. […] Cells were then co-stimulated with 500 ng/mL LPS for 4 h. Plates were spun down and supernatant collected for analysis using a human IL-1β ELISA kit per manufacturer’s directions.

[3] = tested on: bleomycin-induced macrophage activation; assay: Intratracheal bleomycin, therapeutic dosing: BAL macrophage size and IL-1β; assay type: in vivo, mouse; conditions: 3 mg/kg oral once a day from day 3 after bleomycin
Description: To further support our ex vivo macrophage findings, we used a therapeutic paradigm where mice were challenged in vivo with intratracheal instillation of bleomycin. […] The fluid was centrifuged and supernatant and cell fractions analyzed.
Mice were dosed until day 14 at which point BAL fluid was collected. BAL was centrifuged and cells were transferred to culture plates and incubated overnight at 37 °C. Plates were spun down and supernatant and cell pellet analysed separately. Supernatant was analyzed for IL-1β as described for mouse above. The cell pellet for each condition was plated at 3 × 10^3 cells/well in black clear bottom 96-well plates. After settling, cells were fixed in formalin and immunostained against CD68 and detected with a donkey anti-rat Alexa 488 conjugated antibody. Image acquisition and analysis was performed using a Nikon A1R confocal microscope and NIS Elements software.

[4] = set-up: method as in NCT05983939; conditions: Phase I; ref NCT05983939; cited from earlier work
[5] = once per day for 4 days (steady state), 3 h after last dose

T1 sequence (P61793 whole entry): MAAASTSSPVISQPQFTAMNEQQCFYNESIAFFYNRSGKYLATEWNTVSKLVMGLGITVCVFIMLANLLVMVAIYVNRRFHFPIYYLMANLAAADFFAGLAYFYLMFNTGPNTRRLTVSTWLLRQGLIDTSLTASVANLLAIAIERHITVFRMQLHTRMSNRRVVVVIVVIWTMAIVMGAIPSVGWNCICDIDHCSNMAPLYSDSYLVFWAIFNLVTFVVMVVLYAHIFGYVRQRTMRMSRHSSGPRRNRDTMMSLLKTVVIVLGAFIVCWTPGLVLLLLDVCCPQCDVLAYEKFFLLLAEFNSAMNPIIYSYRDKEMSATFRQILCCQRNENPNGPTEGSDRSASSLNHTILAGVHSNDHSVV

COc1ccc(NC(=O)N(c2ccccc2C(C)C)C2CCC(C(=O)O)CC2)c(OC(F)F)n1 (stereo not drawn) [PIPE-791]
increase in potency when dosed 3 versus 24 h prior to radioligand (LPAR1; in vivo receptor occupancy): 20 fold | lung receptor occupancy ED50 (LPAR1; [5]): 0.1 mg/kg | EC50 (LPAR1; [5]): 18 nM | EC90 (LPAR1; once per day for 4 days (steady state), read-out: lung receptor occupancy EC90 (total plasma concentration)): 50 nM | lung receptor occupancy ED50 (LPAR1; single oral dose 3 h prior to radioligand): 0.5 mg/kg | lung receptor occupancy ED50 (LPAR1; single oral dose 24 h prior to radioligand): 0.09 mg/kg | EC50 (LPAR1; single oral dose, 3 h): 79 nM | radiotracer displacement (LPAR1 receptor occupancy) in lung (LPAR1; single oral dose, 3 h post dose): Significant radiotracer displacement (LPAR1 receptor occupancy) was observed at 3 mg/kg | EC50 (LPAR1; single oral dose, 24 h): 4 nM | radiotracer displacement (LPAR1 receptor occupancy) in lung (LPAR1; single oral dose, 24 h post dose): significant occupancy was observed at both 0.3 and 3 mg/kg | blockade of LPA-induced histamine release ([1]; oral, 4 consecutive days (steady state), LPA 3 or 24 h after final dose): significant efficacy at 0.3 and 3 mg/kg was observed at both timepoints | blockade of LPA-induced histamine release ([1]; single oral dose 0.3 mg/kg, LPA challenge 3 or 24 h later): significance was observed at 24 h but not at 3 h | blockade of LPA-induced histamine release ([1]; single oral dose 3 mg/kg, LPA challenge 3 or 24 h later): significant blockade of histamine release | LPS-induced IL-1β in culture media ([2]; 500 ng/mL LPS 4 h, LPS alone 4.3-fold increase): inhibited to baseline levels | IL-1β in culture media, compound alone ([2]; no LPS): No increase was observed | reduction of IL-1β in BAL supernatant [3]: 69.2% | reduction of macrophage cell size (CD68 area) ([3]; BAL cells): 56% | safety and tolerability [4]: safe and well-tolerated
